Experimental data published in the supplement of paper PMC10933113.
Structures can show the parent of a compound that is named as a salt. ± gives the uncertainty stated by the source.

Tests used:
[1] = system: KeratinoSens (HaCaT ARE-luciferase) cells; experiment: cytotoxicity AC50 (CellTiter-Fluor viability); higher = less cytotoxic; settings: exposure time: 24 h
[2] = system: THP-1; experiment: efficacy of IL-8 induction relative to DMSO (% activity); higher = stronger induction; settings: exposure time: 18 h
[3] = system: KeratinoSens (HaCaT ARE-luciferase) cells; experiment: efficacy of ARE luciferase induction relative to DMSO (% activity over DMSO); higher = stronger induction; settings: exposure time: 24 h
[4] = system: cysteine peptide Ac-RFAACAA-COOH; experiment: efficacy of cysteine peptide change (negative = depletion) (% activity); higher = less depletion; settings: incubation time: 24 h
[5] = system: lysine peptide Ac-RFAAKAA-COOH; experiment: efficacy of lysine peptide change (negative = depletion) (% activity); higher = less depletion; settings: incubation time: 24 h

| SMILES | cytotoxicity AC50 [1] [µM] | efficacy of IL-8 induction [2] | efficacy of ARE luciferase induction [3] | efficacy of cysteine peptide change [4] | efficacy of lysine peptide change [5] |
| --- | --- | --- | --- | --- | --- |
| Nc1ccc([N+](=O)[O-])cc1N [4-Nitro-1,2-phenylenediamine] | 41.6 ± 5.3 | 3.64 ± 4.4 | 46.2 ± 27 | -16.4 ± 5.1 | 1.34 ± 22 |
| CCC(=O)C=Cc1ccc(OC)cc1 [1-(4-Methoxyphenyl)-1-pentene-3-one] | – | 0 | -11.5 ± 51 | -4.91 ± 8.5 | 29.4 ± 1.8 |
| C=C(C)C(=O)Nc1ccc(Cl)c(Cl)c1 [Chloranocryl] | – | 1.33 ± 7.2 | 23.2 ± 7 | 4.33 ± 7.5 | 82.1 ± 16 |
| CC(=O)C1(C)CC2=C(CCCC2(C)C)CC1C (centres undefined) | – | 5.26 ± 9.1 | 13.2 ± 8.8 | -16.5 ± 5.3 | 3.3 ± 5.7 |
| CNC(=S)NN [N-Methylhydrazinecarbothioamide] | 22.5 ± 2.6 | 91.8 ± 17 | -12.3 ± 42 | -58.5 ± 10 | -0.75 ± 9.8 |
| Nc1ccc(-c2ccccc2)cc1 [4-Biphenylamine hydrochloride] | – | 0 | 12.3 ± 11 | -6.9 ± 6 | -3.96 ± 11 |
| CC(C)c1ccc2oc3nc(N)c(C(=O)O)cc3c(=O)c2c1 [Amlexanox] | – | 8.52 ± 7.4 | 28.6 ± 29 | 4.82 ± 8.3 | 7.32 ± 13 |
| CCCCCCCCCCCCCCCC[N+](C)(C)Cc1ccccc1 [Benzylhexadecyldimethylammonium chloride] | 31.8 ± 3.6 | 45 ± 9.3 | -36.7 ± 2.6 | 8.87 ± 8.5 | 66 ± 24 |
| Cc1cccc(N(C)C(=S)Oc2ccc3c(c2)C2CCC3C2)c1 (centres undefined) [Tolciclate] | – | 22.4 ± 2.8 | 46.5 ± 33 | -30.8 ± 9.8 | -7.88 ± 7 |
| CC(C)NC(=O)c1ccc(C=O)cc1 [N-isopropyl-4-formylbenzamide] | – | 29.6 ± 51 | 32.9 ± 39 | -2.83 ± 4.9 | 54.8 ± 7.6 |
| CCCCCCOc1ccc(O)cc1 [4-(Hexyloxy)phenol] | – | 0.98 ± 10 | 20 ± 18 | – | – |
| CCc1cccc(CC)c1N(COC)C(=O)CCl [Alachlor] | 48.5 ± 6.7 | 0 | 35.9 ± 29 | 0 | 64.4 ± 24 |
| CCc1oc2ccccc2c1C(=O)c1cc(I)c(O)c(I)c1 [Benziodarone] | – | 0 | 17.7 ± 22 | -8.72 ± 7.7 | -10.2 ± 9.7 |
| CC(C(=O)O)c1ccc(/C=C2\CCCCC2=O)cc1 (centres undefined) [Pelubiprofen] | – | 0 | -2.46 ± 29 | -2.83 ± 4.9 | 56.7 ± 8.3 |
| c1ccc2[nH]c(-c3cscn3)nc2c1 [Thiabendazole] | 14.8 ± 1.9 | 11.1 ± 3.7 | 33 ± 4.4 | 2.83 ± 4.9 | 0.27 ± 31 |
| CCCCCOc1ccccc1/C(=C\SC)n1ccnc1 [Neticonazole] | – | 23.6 ± 1.8 | 21.4 ± 9.5 | -4.4 ± 7.6 | 64.1 ± 7.7 |
| [OH-].c1cc[c]([Sn+]([c]2ccccc2)[c]2ccccc2)cc1 [Triphenyltin hydroxide] | 2.82 | 16.4 ± 2.2 | 429 ± 120 | -39.1 ± 94 | 14.6 ± 2.5 |
| COC(=O)Nc1nc2cc([S+]([O-])c3ccccc3)ccc2[nH]1 (centres undefined) [Oxfendazole] | – | 2.33 ± 4 | 0 | 13.2 ± 15 | -8.69 ± 25 |

| SMILES | cytotoxicity AC50 [1] [µM] | efficacy of IL-8 induction [2] | efficacy of ARE luciferase induction [3] | efficacy of cysteine peptide change [4] | efficacy of lysine peptide change [5] |
| --- | --- | --- | --- | --- | --- |
| CC(=O)Oc1ccc(C2(c3ccc(OC(C)=O)cc3)C(=O)Nc3ccccc32)cc1 [Oxyphenisatin acetate] | – | 0 | 49 ± 42 | 0.29 ± 11 | 34.2 ± 19 |
| CC(=O)Oc1ccc(C(c2ccc(OC(C)=O)cc2)c2ccccn2)cc1 [Bisacodyl] | – | 0 | 30.5 ± 18 | 3.97 ± 6.9 | 26.8 ± 7.9 |
| Fc1ccc(Oc2ccnc3cc(Cl)cc(Cl)c23)cc1 [Quinoxyfen] | 57 ± 12 | 25.9 ± 3.1 | -5.76 ± 35 | 3.98 ± 6.9 | -7.82 ± 12 |
| CCCCCCCC/C=C\CCCCCCCC(=O)N(C)CC(=O)O [Oleyl sarcosine] | – | 0 | -5.73 ± 8.1 | -5.45 ± 4.8 | 3.95 ± 6.8 |
| Clc1ccc(C(Cn2ccnc2)OCc2c(Cl)cccc2Cl)c(Cl)c1 (centres undefined) [Isoconazole] | 13.1 ± 0.89 | 8.24 ± 7.5 | 15 ± 17 | 1.83 ± 9.7 | 65.7 ± 12 |
| O=[N+]([O-])c1cc(Cl)c(Cl)c(Cl)c1Cl [2,3,4,5-Tetrachloronitrobenzene] | 44.9 ± 5.2 | 49.5 ± 10 | 42.4 ± 36 | -5.15 ± 8.9 | -3.6 ± 17 |
| O=C(O)c1ccc(=O)[nH]c1 [6-Hydroxynicotinic acid] | – | 0 | 27.8 ± 30 | 12.2 ± 12 | -6.78 ± 17 |
| Nc1ccc(/N=N/c2ccccc2)c(N)n1 [Phenazopyridine hydrochloride] | 66.8 ± 15 | 51.3 ± 29 | 35.5 ± 17 | -35 ± 6.8 | 26.2 ± 4.5 |
| O=c1cc(-c2ccccc2)oc2ccccc12 [Flavone] | – | 3.56 ± 6.2 | 27 ± 10 | -1.8 ± 3.1 | 50.2 ± 3.4 |
| COc1ccc2[nH]cc(CCN(C(C)C)C(C)C)c2c1 [5-Methoxy-N,N-diisopropyltryptamine hydrochloride] | – | 1.45 ± 2.5 | 19.1 ± 7.6 | -5.5 ± 9.5 | 138 ± 57 |
| c1cc(OCC2CO2)cc(OCC2CO2)c1 (centres undefined) [Diglycidyl resorcinol ether (DGRE)] | 63.9 ± 12 | 29.2 ± 11 | 74.5 ± 5.8 | -8.5 ± 7.8 | 46.9 ± 8.6 |
| CCOC(=O)CCC(=O)OCC [Diethyl butanedioate] | – | 3.24 ± 5.6 | 24.9 ± 23 | 47 ± 2.6 | 2.82 ± 10 |
| c1ccc(SCCSc2ccccc2)cc1 [1,2-Bis(phenylthio)ethane] | – | 0 | 40.6 ± 11 | 3.83 ± 6.6 | -9.19 ± 10 |
| NCCc1ccc(O)cc1 [Tyramine] | – | 0 | 17 ± 9 | 10.7 ± 18 | -1.41 ± 14 |
| CCCCCCCCCCC=CC1CC(=O)OC1=O (centres undefined) [3-(Dodecenyl)dihydro-2,5-furandione] | – | -1.83 ± 3.2 | 3.3 ± 5.7 | 0 | -22.7 ± 13 |
| CCCCCCCC(=O)Oc1c(Br)cc(C#N)cc1Br [Bromoxynil octanoate] | – | 0 | 2.61 ± 12 | -2.83 ± 4.9 | -17.8 ± 10 |
| Oc1ccc(-c2ccccc2)cc1Cl [2-Chloro-4-phenylphenol] | – | 3.65 ± 6.3 | 22.4 ± 9.2 | 0.73 ± 13 | 3.75 ± 3.3 |
